According to US20240299400A1, “Transcription Factor GLI1 Inhibitors and Uses Thereof” (University of Connecticut, priority 2023, published 2024):
Like-named read-outs stand apart in the source and are kept apart here.

Legend:
GLI1 mRNA expression = test: RT-qPCR GLI1 mRNA expression in Sufu-KO MEFs; type: cell-based, mouse; conditions: for IC50: Mus musculus, Ave ± SEM, read-out: RT-qPCR, IC50 Sufu-KO
PANC-1 (pancreatic) = test: MTS anti-proliferative assay in PANC-1 cells; type: cell-based; conditions: Homo sapiens, PANC-1; Table 8, 48 h, mean ± SEM
PIK3C2A = molecular target: T1, PIK3C2A (Homo sapiens, UniProt O00443); test: Adapta kinase assay, PIK3C2A; type: biochemical; conditions: average of three replicates
T1 construct: purchased ThermoFisher Scientific (Madison, WI, USA), contract service
T1 sequence (O00443 whole entry): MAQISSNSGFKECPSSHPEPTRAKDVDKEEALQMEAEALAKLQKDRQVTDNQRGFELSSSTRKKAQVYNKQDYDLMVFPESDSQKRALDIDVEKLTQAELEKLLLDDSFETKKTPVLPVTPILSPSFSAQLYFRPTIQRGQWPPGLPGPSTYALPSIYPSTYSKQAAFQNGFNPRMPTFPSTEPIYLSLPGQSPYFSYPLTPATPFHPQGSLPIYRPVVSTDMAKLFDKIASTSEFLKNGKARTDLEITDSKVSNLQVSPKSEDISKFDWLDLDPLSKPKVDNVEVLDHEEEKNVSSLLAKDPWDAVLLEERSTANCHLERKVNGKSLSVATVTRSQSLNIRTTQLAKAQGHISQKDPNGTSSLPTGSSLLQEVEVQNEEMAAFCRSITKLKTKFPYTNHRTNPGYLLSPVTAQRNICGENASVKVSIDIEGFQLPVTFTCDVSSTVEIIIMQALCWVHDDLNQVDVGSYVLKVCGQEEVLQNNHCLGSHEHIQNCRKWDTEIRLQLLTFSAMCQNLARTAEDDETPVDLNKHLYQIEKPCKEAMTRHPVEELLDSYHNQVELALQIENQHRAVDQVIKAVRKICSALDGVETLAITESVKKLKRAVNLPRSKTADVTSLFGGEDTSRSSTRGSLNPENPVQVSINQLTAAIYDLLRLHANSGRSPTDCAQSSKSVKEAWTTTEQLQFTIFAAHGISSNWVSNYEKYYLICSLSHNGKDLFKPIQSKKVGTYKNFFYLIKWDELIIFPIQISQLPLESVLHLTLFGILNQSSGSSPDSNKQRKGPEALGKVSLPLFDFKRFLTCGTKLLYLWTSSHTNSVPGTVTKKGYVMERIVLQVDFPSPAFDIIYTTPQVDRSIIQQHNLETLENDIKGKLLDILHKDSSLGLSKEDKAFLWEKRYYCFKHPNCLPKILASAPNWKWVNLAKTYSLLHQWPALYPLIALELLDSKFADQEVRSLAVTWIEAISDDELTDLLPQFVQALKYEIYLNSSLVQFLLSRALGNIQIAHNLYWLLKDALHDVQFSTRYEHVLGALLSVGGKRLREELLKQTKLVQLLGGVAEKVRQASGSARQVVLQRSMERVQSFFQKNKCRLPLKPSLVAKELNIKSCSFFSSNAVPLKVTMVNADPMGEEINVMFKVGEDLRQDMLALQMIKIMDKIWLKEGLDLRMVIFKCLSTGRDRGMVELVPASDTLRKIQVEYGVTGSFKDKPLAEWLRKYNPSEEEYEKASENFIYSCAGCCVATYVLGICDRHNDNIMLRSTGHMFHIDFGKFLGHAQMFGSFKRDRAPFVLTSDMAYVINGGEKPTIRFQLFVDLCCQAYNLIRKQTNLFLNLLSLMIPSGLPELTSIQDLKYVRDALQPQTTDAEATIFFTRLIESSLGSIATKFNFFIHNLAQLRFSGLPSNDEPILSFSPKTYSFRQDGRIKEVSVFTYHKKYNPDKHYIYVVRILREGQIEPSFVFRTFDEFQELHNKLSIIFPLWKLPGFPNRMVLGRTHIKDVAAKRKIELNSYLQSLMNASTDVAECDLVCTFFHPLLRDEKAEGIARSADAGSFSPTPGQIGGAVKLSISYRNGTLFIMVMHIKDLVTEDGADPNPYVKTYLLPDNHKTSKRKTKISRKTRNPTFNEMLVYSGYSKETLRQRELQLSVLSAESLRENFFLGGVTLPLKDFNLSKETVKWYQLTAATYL
Description: (§1) Kinase screening experiments. Kinase inhibition/binding experiments were performed by ThermoFisher Scientific (Madison, WI, USA) as a contract service, utilizing their default protocols [G. Yernale, A comprehensive review on the biological interest of quinoline and its derivatives. Bioorg. Med. Chem. 32 (2021) 115973]. Briefly, for ZLyte assay, compound in DMSO (100 nL), kinase buffer (2.4 μL), peptide/kinase mixture (5 μL), and ATP solution (2.5 μL) were mixed in a black 384-well plate. Following a 30 s plate shake to mix reagents, the kinase assay mixture was incubated at RT for 60 min. Following addition of the development reagent solution to each well, another 60 min incubation was performed at RT for reaction development. Fluorescent signal was recorded and subsequently analyzed.
For the Adapta assay, compounds in DMSO (100 nL), 30 mM HEPES buffer (2.4 μL), substrate/kinase mixture (5 μL), and ATP solution (2.5 μL) were mixed in a white 384-well plate. Following a 30 s plate shake to mix the reagents and a 1 min centrifuge at 1000 g, the kinase assay mixture was incubated at RT for 60 min. Following addition of the detection mix (5 μL) to each well, 30 s plate shaking, and 1 min centrifuge at 1000 g, another 60 min incubation was performed at RT for equilibration. Fluorescent signals were recorded and subsequently analyzed.

AKT1 = molecular target: T2, AKT1 (Homo sapiens, UniProt P31749); test: ZLyte kinase assay, AKT1; type: biochemical; conditions: average of three replicates
T2 construct: purchased ThermoFisher Scientific (Madison, WI, USA), contract service
Description: as §1

CSNK1A1 = molecular target: T3, CSNK1A1 (Homo sapiens, UniProt P48729); test: ZLyte kinase assay, CSNK1A1; type: biochemical; conditions: average of three replicates
T3 construct: purchased ThermoFisher Scientific (Madison, WI, USA), contract service
T3 sequence (P48729 whole entry): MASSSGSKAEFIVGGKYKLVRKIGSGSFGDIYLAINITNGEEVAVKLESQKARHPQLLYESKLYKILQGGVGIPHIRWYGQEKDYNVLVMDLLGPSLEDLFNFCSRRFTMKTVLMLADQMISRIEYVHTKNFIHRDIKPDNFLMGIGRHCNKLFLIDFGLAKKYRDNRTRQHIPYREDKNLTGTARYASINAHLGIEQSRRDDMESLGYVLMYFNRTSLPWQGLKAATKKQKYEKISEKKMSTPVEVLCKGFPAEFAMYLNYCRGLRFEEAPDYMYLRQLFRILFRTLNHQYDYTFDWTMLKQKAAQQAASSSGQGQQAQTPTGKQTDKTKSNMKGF
Description: as §1

CSNK2A1 = molecular target: T4, CSNK2A1 (Homo sapiens, UniProt P68400); test: ZLyte kinase assay, CSNK2A1; type: biochemical; conditions: average of three replicates
T4 construct: purchased ThermoFisher Scientific (Madison, WI, USA), contract service
Description: as §1

DYRK1B = molecular target: T5, DYRK1B (Homo sapiens, UniProt Q9Y463); test: ZLyte kinase assay, DYRK1B; type: biochemical; conditions: average of three replicates
T5 construct: purchased ThermoFisher Scientific (Madison, WI, USA), contract service
T5 sequence (Q9Y463 whole entry): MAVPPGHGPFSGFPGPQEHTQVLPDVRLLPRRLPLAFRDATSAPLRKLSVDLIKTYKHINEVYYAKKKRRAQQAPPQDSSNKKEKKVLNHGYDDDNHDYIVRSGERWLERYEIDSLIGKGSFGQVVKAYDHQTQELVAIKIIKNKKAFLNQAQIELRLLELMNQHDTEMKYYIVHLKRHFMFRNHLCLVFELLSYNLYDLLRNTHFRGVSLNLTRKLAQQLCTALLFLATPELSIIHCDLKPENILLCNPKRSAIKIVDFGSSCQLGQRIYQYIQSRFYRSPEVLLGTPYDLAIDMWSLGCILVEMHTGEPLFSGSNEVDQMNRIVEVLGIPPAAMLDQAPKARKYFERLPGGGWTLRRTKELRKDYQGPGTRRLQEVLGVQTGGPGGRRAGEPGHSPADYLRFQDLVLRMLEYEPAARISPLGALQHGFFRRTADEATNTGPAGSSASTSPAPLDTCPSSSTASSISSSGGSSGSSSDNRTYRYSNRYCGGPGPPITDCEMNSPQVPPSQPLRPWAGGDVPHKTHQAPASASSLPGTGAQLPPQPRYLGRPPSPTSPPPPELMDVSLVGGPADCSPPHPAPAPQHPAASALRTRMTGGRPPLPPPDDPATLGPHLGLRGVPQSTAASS
Description: as §1

EGFR = molecular target: T6, EGFR (Homo sapiens, UniProt P00533); test: ZLyte kinase assay, EGFR; type: biochemical; conditions: average of three replicates
T6 construct: purchased ThermoFisher Scientific (Madison, WI, USA), contract service
Description: as §1

IGF1R = molecular target: T7, IGF1R (Homo sapiens, UniProt P08069); test: ZLyte kinase assay, IGF1R; type: biochemical; conditions: average of three replicates
T7 construct: purchased ThermoFisher Scientific (Madison, WI, USA), contract service
T7 sequence (P08069 31-1367): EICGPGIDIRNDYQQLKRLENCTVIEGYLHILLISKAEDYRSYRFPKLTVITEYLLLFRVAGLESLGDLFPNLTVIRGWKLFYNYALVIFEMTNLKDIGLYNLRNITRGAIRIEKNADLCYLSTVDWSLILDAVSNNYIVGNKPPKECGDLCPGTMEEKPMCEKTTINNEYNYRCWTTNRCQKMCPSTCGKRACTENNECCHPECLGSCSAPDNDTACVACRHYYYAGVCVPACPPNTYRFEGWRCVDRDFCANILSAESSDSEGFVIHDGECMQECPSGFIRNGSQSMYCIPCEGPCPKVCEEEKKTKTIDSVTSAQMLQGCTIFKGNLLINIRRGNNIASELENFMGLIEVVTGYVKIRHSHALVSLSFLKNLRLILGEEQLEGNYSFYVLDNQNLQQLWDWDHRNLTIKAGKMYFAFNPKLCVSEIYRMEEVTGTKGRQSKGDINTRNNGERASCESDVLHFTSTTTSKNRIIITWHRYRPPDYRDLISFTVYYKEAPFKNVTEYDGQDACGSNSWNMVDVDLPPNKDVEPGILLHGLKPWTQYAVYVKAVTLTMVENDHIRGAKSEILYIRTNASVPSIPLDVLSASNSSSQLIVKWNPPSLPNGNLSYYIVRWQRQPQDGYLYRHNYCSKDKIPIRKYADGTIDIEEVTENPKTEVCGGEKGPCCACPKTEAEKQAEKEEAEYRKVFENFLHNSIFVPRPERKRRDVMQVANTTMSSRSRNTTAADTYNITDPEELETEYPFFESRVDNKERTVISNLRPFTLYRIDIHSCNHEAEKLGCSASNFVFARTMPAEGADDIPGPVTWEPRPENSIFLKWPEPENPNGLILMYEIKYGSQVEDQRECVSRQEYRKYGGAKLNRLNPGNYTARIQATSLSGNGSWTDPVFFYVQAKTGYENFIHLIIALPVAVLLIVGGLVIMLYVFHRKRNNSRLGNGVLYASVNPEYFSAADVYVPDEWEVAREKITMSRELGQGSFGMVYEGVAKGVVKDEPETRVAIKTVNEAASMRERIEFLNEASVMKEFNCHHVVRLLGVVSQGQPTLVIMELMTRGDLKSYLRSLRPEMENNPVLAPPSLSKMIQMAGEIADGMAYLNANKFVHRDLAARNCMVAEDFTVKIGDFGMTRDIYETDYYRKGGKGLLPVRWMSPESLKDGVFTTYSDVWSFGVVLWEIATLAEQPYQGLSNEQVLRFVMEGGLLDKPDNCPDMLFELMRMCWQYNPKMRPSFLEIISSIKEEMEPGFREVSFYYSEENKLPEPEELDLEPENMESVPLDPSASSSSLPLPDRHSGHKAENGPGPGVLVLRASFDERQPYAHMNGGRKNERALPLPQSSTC
Description: as §1

MAP2K1 = molecular target: T8, MAP2K1 (Homo sapiens, UniProt Q02750); test: ZLyte kinase assay, MAP2K1; type: biochemical; conditions: average of three replicates
T8 construct: purchased ThermoFisher Scientific (Madison, WI, USA), contract service
T8 sequence (Q02750 whole entry): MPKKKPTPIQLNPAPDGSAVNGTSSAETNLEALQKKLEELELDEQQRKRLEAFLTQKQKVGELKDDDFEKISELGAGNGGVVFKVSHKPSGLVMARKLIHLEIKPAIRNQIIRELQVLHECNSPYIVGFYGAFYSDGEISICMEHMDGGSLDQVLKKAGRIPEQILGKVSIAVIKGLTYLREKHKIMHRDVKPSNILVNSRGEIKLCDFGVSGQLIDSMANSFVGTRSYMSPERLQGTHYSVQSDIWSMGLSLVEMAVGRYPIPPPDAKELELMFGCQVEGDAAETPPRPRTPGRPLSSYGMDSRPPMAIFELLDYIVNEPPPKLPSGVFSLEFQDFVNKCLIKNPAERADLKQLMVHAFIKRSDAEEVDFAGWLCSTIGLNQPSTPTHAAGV
Description: as §1

MAPK3 = molecular target: T9, MAPK3 (Homo sapiens, UniProt P27361); test: ZLyte kinase assay, MAPK3; type: biochemical; conditions: average of three replicates
T9 construct: purchased ThermoFisher Scientific (Madison, WI, USA), contract service
Description: as §1

MET = molecular target: T10, MET (Homo sapiens, UniProt P08581); test: ZLyte kinase assay, MET; type: biochemical; conditions: average of three replicates
T10 construct: purchased ThermoFisher Scientific (Madison, WI, USA), contract service
Description: as §1

PDGFRA = molecular target: T11, PDGFRA (Homo sapiens, UniProt P16234); test: ZLyte kinase assay, PDGFRA; type: biochemical; conditions: average of three replicates
T11 construct: purchased ThermoFisher Scientific (Madison, WI, USA), contract service
Description: as §1

PRKACA = molecular target: T12, PRKACA (Homo sapiens, UniProt P17612); test: ZLyte kinase assay, PRKACA; type: biochemical; conditions: average of three replicates
T12 construct: purchased ThermoFisher Scientific (Madison, WI, USA), contract service
Description: as §1

RPS6KB1 = molecular target: T13, RPS6KB1 (Homo sapiens, UniProt P23443); test: ZLyte kinase assay, RPS6KB1; type: biochemical; conditions: average of three replicates
T13 construct: purchased ThermoFisher Scientific (Madison, WI, USA), contract service
Description: as §1

SRC kinase = molecular target: T14, SRC kinase (Homo sapiens, UniProt P12931); test: ZLyte kinase assay, SRC; type: biochemical; conditions: for inhibition at 1 µM: ZLyte, average of three replicates; for concentration-dependent inhibition of SRC kinase (in words): FIG. 6, representative experiment in triplicate
T14 construct: purchased ThermoFisher Scientific (Madison, WI, USA), contract service
T14 sequence (P12931 whole entry): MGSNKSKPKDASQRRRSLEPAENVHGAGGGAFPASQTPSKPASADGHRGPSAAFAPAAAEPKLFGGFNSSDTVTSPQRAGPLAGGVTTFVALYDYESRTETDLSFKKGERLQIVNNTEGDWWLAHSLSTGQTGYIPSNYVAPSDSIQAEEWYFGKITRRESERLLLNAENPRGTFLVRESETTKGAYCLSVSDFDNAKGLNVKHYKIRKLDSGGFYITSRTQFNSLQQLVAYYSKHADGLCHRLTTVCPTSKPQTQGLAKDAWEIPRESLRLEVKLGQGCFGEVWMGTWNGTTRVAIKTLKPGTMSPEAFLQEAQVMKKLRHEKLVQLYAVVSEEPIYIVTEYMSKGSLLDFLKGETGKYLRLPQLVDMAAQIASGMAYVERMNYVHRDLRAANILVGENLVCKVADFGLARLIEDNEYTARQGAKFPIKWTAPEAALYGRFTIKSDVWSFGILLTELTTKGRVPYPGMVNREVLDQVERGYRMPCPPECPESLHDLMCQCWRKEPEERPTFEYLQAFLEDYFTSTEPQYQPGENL
Description: as §1

IC50 (GLI1 mRNA expression; Table 5, GLI1 mRNA) [nM] | GI50 (PANC-1 (pancreatic)) [µM] | inhibition at 1 µM (PIK3C2A) [%] | inhibition at 1 µM (AKT1) [%] | inhibition at 1 µM (CSNK1A1) [%] | inhibition at 1 µM (CSNK2A1) [%] | inhibition at 1 µM (DYRK1B) [%] | inhibition at 1 µM (EGFR) [%] | inhibition at 1 µM (IGF1R) [%] | inhibition at 1 µM (MAP2K1) [%] | inhibition at 1 µM (MAPK3) [%] | inhibition at 1 µM (MET) [%] | inhibition at 1 µM (PDGFRA) [%] | inhibition at 1 µM (PRKACA) [%] | inhibition at 1 µM (RPS6KB1) [%] | inhibition at 1 µM (SRC kinase) [%] | IC50 (GLI1 mRNA expression; Table 7, GLI1 mRNA) [nM] | Structure (SMILES) | anti-GLI1 activity in Sufu-KO cells (in words) (GLI1 mRNA expression) | concentration-dependent inhibition of SRC kinase (in words) (SRC kinase)
> 25000 | > 100 | 3 | 4 | 4 | 5 | 3 | -2 | 9 | 7 | 4 | 5 | 0 | 4 | -2 | 45 | – | CCN(CC)c1ccc(C(Nc2ccccn2)c2ccc3ccc(C)nc3c2OC)cc1 (stereo not shown) [Compound 20, N-((4-Diethylaminophenyl)(8-methoxy-2-methylquinolin-7-yl)methyl)pyridin-2-amine] | inactive | inhibit SRC kinase in a concentration-dependent fashion
– | 0.83 ± 0.1 | -1 | 7 | 3 | 2 | 3 | 2 | 12 | 14 | 2 | 4 | 0 | 6 | 0 | 46 | 2900 ± 1900 | Cc1ccc2ccc(C(Nc3ccccn3)c3ccncc3)c(O)c2n1 (stereo not shown) [Compound 39, 7-((Pyridin-4-yl)(pyridin-2-ylamino)methyl)-2-methylquinolin-8-ol] | – | inhibit SRC kinase in a concentration-dependent fashion
– | 23.2 ± 4.3 | 0 | 10 | 6 | 2 | 5 | 2 | 9 | 14 | 7 | 4 | 1 | 7 | -1 | 39 | 820 ± 270 | Cc1ccc2ccc(C(Nc3ccccn3)c3ccc(N4CCCC4=O)cc3)c(O)c2n1 (stereo not shown) [Compound 48, 7-((4-(2-Oxopyrrolidin-1-yl)phenyl)(pyridin-2-ylamino)methyl)-2-methylquinolin-8-ol] | – | inhibit SRC kinase in a concentration-dependent fashion
